# Assay results as given in ChEMBL document CHEMBL3867439, “Affinity Crystallography: A New Approach to Extracting High-Affinity Enzyme Inhibitors from Natural Extracts” (J Nat Prod, 2016).
# Target: T1, Cathepsin K (Homo sapiens, UniProt P43235)
# T1 sequence (P43235 whole entry): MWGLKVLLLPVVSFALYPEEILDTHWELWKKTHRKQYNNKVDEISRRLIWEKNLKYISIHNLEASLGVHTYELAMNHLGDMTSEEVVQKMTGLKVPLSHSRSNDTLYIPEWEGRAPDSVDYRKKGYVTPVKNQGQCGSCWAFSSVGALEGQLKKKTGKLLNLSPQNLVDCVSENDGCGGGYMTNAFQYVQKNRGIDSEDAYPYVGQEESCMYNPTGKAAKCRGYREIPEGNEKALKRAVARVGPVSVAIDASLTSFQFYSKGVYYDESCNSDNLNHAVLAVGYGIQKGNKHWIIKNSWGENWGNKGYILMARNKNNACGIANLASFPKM
# Assay: Competitive inhibition of human recombinant cathepsin K using Z-FR-MCA fluorogenic substrate by Handerson plot analysis
row,Ki,Structure (SMILES)
1,11 nM,CC(C)[C@H](NC(=O)[C@H](CO)NC(=O)NCCCCNC(=N)N)C(=O)N[C@H]1CCCN(C(=N)N)C1O (stereo partly specified)
2,41 nM,CC(C)[C@H](NC(=O)[C@H](CCCNC(=N)N)NC(=O)N[C@@H](Cc1ccccc1)C(=O)O)C(=O)NC1CCCN(C(=N)N)C1O (stereo in doubt; form 2)

# Target: T1, Cathepsin K
# Assay: Competitive inhibition of human recombinant cathepsin K using Z-FR-MCA fluorogenic substrate by Dixon plot analysis
row,Ki,Structure (SMILES)
1,393 nM,CC(C)[C@H](NC(=O)[C@H](CCCNC(=N)N)NC(=O)N[C@@H](Cc1ccccc1)C(=O)O)C(=O)NC1=CN(C(=N)N)CCC1
2,163 nM,CC(C)[C@H](NC(=O)[C@H](CCCNC(=N)N)NC(=O)N[C@@H](Cc1ccccc1)C(=O)O)C(=O)NC1CCCN(C(=N)N)C1=O (stereo partly specified)
3,105 nM,CC(C)[C@H](NC(=O)[C@H](CCCNC(=N)N)NC(=O)N[C@@H](Cc1ccccc1)C(=O)O)C(=O)NC1CCCN(C(=N)N)C1O (stereo in doubt; form 1)
4,69 nM,CC(C)[C@H](NC(=O)[C@H](CCCNC(=N)N)NC(=O)N[C@@H](Cc1ccccc1)C(=O)O)C(=O)NC1CCCN(C(=N)N)C1O (stereo in doubt; form 2)
